The values that follow come from patent publication US20020127182A1, “Paramagnetic metal ion-based macrocylic magnetization transfer contrast agents and method of use” (Board of Regents, The University of Texas System, priority 2000, published 2002).

Common to all, as to format: physicochemical
The nature of series [1]: Effect of saturation duration on MT with Yb(9)^3+ (bulk water 1H NMR). The note with it: 5 mM, pH 7.4, 25° C.; saturating pulse of about 2 s or longer centered between amide proton signals, bandwidth 1500 Hz. As for the experimental part: An eleventh series of experiments was conducted to examine the effect of saturation duration on the magnitude of MT obtained using the Yb(9)^3+ complex. […] The upper series of spectra (a) were obtained while applying a saturating pulse of different duration and centered between the resonance signals of the exchangeable amide protons, with a saturating bandwidth of 1500 Hz. The saturating bandwidth was produced using conventional water elimination technique (i.e., a wet1d pulse sequence). See Varian User Manual; Varian NMR, Palo Alto, Calif.; User Guide, VNMR Version 6.1 software, 1997), incorporated herein by reference. The pulse sequence to produce saturation was modified to include hard loops to shape the pulse train (90° e-burp1, typically repeated from about 0 to about 500 times) with a bandwidth of 1500 Hz (pwwet=3.0 ms and wetpwr=28 db). The lower series (b) of spectra, shown inverted to facilitate comparison to series (a), were obtained while applying the same saturating pulse, but on the opposite side and equal distance away from the bulk water MR signal. As the illustrated in FIG. 26, for a saturating pulse of about 2 s or longer, about a 38% decrease in the bulk water signal was obtained for series (a).

A short description of series [2]: pH dependence of amide proton (Ha, Hb) lifetimes τM^298 and Δω•τM of Yb(9)^3+. From the text: As indicated by their linewidths, illustrated in FIG. 24, the two exchangeable amide sites have different dependences upon pH. As further illustrated in FIG. 25, Hb exchanges about 1.3 times faster than that of Ha. […] Similar to that discussed above for Ln(1)^3+, either too fast or too slow exchange may produce less MT. For the conditions used to obtain the data presented in Table 2, the maximum MT effect appear to be obtained for Ln(9)^3+ complexes when the exchange limiting regime is about 15.

Series [3] in a line: 1H NMR spectra of Ln(9)^3+ complexes, exchangeable amide protons. The source says: For certain Ln(9)^3+ complexes, for example, with Ln equal to Yb or Tm, the bound water molecules are ^1H NMR invisible probably due to the fast exchange between the bound water and the bulk water. […] Unfortunately, the NMR signal was invisible, probably due to its fast exchange with the bulk water. However, the eight exchangeable amide protons present as two resonance peaks with equivalent intensity, at −14.5 (Ha) and −17.7 (Hb) ppm, respectively, are visible.

Series [4] is described as follows: MT profiles of Eu(2)^- complex versus pH and saturation power. The note with it: saturating bound water at about 57 ppm; 62.5 mM, 2 s, 41 db. As for the experimental part: In a seventh experiment, MT profiles were obtained for 62.5 mM aqueous solutions of the Eu(2)^− lanthanide-macrocylic complex. A saturating RF pulse of 2 s at the resonance frequency of bound water or amide protons, with a power of 41 db, was applied to a 3.5 cm volume coil. […] The same set of data was plotted versus the bound water lifetime, τM^298, or the exchange limiting regime, Δω•τM, as shown in FIG. 17. The largest MT occurs for a Δω•τM ranging from about 12 to about 17, and optimally about 15.

The nature of series [5]: 500 MHz 1H NMR spectrum of Eu(2)^- complex, exchangeable sites. The note with it: aqueous, pH 7.4, 25° C. The source says:
Two sites in the complex (denoted by the symbols *) are chemically exchangeable with bulk water (denoted by the symbol ? ): one is from Eu^3+-bound water at about 57 ppm, and another is from four equivalent amide protons on the pendent arms at about −6 ppm.

Series [6] can be described thus: pH dependence of bound water and amide proton lifetimes τM^298 of Eu(2)^- by variable temperature 1H NMR line width fitting. As for the experimental part:
In a sixth series of experiments, the pH dependence of the bound water (FIG. 14) and the amide (FIG. 15) protons lifetimes, τM^298, were determined by variable temperature ^1H NMR line width fitting. The chemically exchangeable bound water and amide protons have different dependence on pH. For bound water protons, the slowest exchange, i.e., largest τM^298, takes place at pH 7 (FIG. 14). Moreover, the pH dependence may be divided into two linear ranges: an acidic range where τM^298=68.6*pH−172.5; and a basic range where τM^298=−128.2*pH+1212.6, respectively. For the amide protons, the slowest exchange is at pH 5.5 (FIG. 15).

With `NC(=O)CN1CCN(CC(N)=O)CCN(CC(N)=O)CCN(CC(N)=O)CC1.[Yb+3]` [Yb(9)^3+], in series [1], the “decrease in the bulk water signal, series (a)” value was approximately 38%. In series [2], the “Hb exchanges faster than Ha” value is listed as “about 1.3 times”. Further, the “exchange limiting regimes Δω•τM of both amide protons” value in series [2] (7.05 T, broad range of pH values) is listed as more than 1. In addition, the “τM^298, Ha” value in series [2] (pH 6.46) was 5.00 ms; in series [2] (pH 6.76), 2.30 ms; in series [2] (pH 7.06) it was 1.21 ms; in series [2] (pH 7.21), 0.92 ms; in series [2] (pH 7.43), 0.64 ms; in series [2] (pH 7.84), 0.57 ms. The “τM^298, Hb” value in series [2] (pH 6.46) turned out to be 4.00 ms; in series [2] (pH 6.76), 1.78 ms; in series [2] (pH 7.06) it was 0.82 ms; in series [2] (pH 7.21), 0.72 ms; in series [2] (pH 7.43), 0.52 ms; in series [2] (pH 7.84) it was 0.44 ms. Moreover, the “Δω•τM^298, Ha” value in series [2] (pH 6.46, 7.05 T) worked out at 139.3; in series [2] (pH 6.76, 7.05 T), 64.1; in series [2] (pH 7.06, 7.05 T), 33.6; in series [2] (pH 7.21, 7.05 T), 25.5; in series [2] (pH 7.43, 7.05 T), 17.9; in series [2] (pH 7.84, 7.05 T), 15.9. For the same compound, the “Δω•τM^298, Hb” value in series [2] (pH 6.46, 7.05 T) is recorded as 133.7; in series [2] (pH 6.76, 7.05 T) it was 59.5; in series [2] (pH 7.06, 7.05 T) it was 27.2; in series [2] (pH 7.21, 7.05 T), 24.2; in series [2] (pH 7.43, 7.05 T) it was 17.4; in series [2] (pH 7.84, 7.05 T), 14.7. Further, in series [3], the “chemical shift of amide protons, first set (Ha)” value is reported as −14.5 ppm. The “chemical shift of amide protons, second set (Hb)” value in series [3] is −17.7 ppm.

For the compound `O=C([O-])CNC(=O)CN1CCN(CC(=O)NCC(=O)[O-])CCN(CC(=O)NCC(=O)[O-])CCN(CC(=O)NCC(=O)[O-])CC1.[Eu+3]` [Eu(2)^−, LnDOTA-4AmC^−], in series [4], the “optimal Δω•τM for largest MT” value is recorded as “about 15”. In addition, in series [5], the “chemical shift of Eu^3+-bound water” value is reported as “about 57 ppm” and the “chemical shift of four equivalent amide protons on the pendent arms” value is “about −6 ppm”. Further, in series [6], the “pH of slowest exchange (largest τM^298), bound water protons” value is 7 and the “pH of slowest exchange, amide protons” value is recorded as 5.5. Further, the “exchange limiting regimes (Δω•τM), bound water and amide protons” value in series [6] (magnetic field strength of 4.7) is reported as more than 1.
